“Also recorded” adds a separate entry of the source.
Experiments:
[1] = system: PTP1B1-367, PTP1B1-346 and PTP1B1-321; assay: Phosphatase assay with C-terminal truncation mutants; format: biochemical
Excerpt: All common reagents were obtained from Thermo Fisher Scientific (Waltham, MA) or Sigma-Aldrich (St. Louis, MO). Difluoro-4-methylumbelliferyl phosphate (DiFMUP) was obtained from Invitrogen (cat #D22065). Solid black 384-well plates (cat #3573) for phosphatase assays were from Corning Incorporated (Corning, NY).

[2] = ESI-MS analysis of complex formation with a series of other metal ions; format: binding; details: panel of metals
Procedure: Eight equivalents of M(NO3)2·xH2O or MSO4·xH2O were reacted with 1 eq. of DPM-1001, DPM-1003 or analog 2 (1 mM in H2O). The reaction solutions were stirred at RT, 40° C. and 80° C. for 2 h. Each sample was diluted 5-fold in 50% methanol, 0.1% formic acid and loaded into a 500 μL syringe. A Thermo Vantage triple quadrupole mass spectrometer (Thermo Scientific), equipped with an HESI spray source was coupled to an Accela HPLC system (Thermo Scientific). Mobile phase A consisted of 0.1% formic acid and mobile phase B consisted of 0.1% formic acid in methanol. Isocratic flow was set to 50% B at 200 μL/min. 200 μl samples were injected into the LC flow line via syringe pump at 10 μL/min and electrosprayed into the Vantage triple quadrupole mass spectrometer. A spray voltage of 4.3 kV was used along with a capillary temperature of 350° C. Each full MS scan was 0.5 s and data were collected with a scan range of 200 m/z to 900 m/z over 1 min.

JAK2 = assay: Leptin signaling in hypothalamus of treated mice; format: in vivo; details: leptin-induced
Procedure: Technology (JAK2, catalog 3230, clone D2E12; p-T308 AKT (catalog 13038, clone D25E6); AKT (catalog 4691, clone C67E7) and Sigma-Aldrich (actin, catalog A2228, clone AC-74).
All protocols were approved by the Institutional Animal Use and Care Committee of Cold Spring Harbor laboratory. 10 week-old male mice fed chow diet or high-fat diet (D12492) were acclimatized for 10 days under standard conditions before experiments. Mice were injected intraperitoneally (i.p.) once daily with vehicle, 5 mg/kg of DPM-1001 intraperitoneally or orally for 50 days. Mice were euthanized after 6 h of fasting, and serum samples were collected to measure the metabolic parameters and tissue samples were collected for studying changes in signaling.

TX mice [3] = assay: Survival and tolerability in the TX mouse model of Wilson's disease; format: in vivo
Procedure: C3He-Atp7b^tx-j were obtained from the Jackson laboratory. All animal experiments were performed according to protocols approved by the Institutional Animal Use and Care Committee of Cold Spring Harbor laboratory. Mice were injected intraperitoneally (i.p.) with vehicle, or administered DPM-1001 intraperitoneally or orally at 5 mg/kg once every third day, for over a year. At the end of the study animals were euthanized and tissue samples were removed for biochemical studies.

TX mice [4] = assay: Liver histology; format: in vivo, mouse
Excerpt: Liver tissues from wild-type and TX mice from untreated and DPM-1001-treated mice were sectioned and stained with H&E or rhodanine. Whole-slide, digitized images of H&E-stained tissue were captured using the Aperio ScanScope XT automated scanning system (Vista, CA). Image J software was used to quantitate rhodanine staining.

[5] = system: triple-negative breast cancer (TNBC) cell lines; assay: MTT cell survival, triple-negative breast cancer cell lines; format: cell-based
Procedure: (§1) The MTT assay was used to evaluate cell survival in the absence and presence of different compounds. The thiazolyl blue tetrazolium bromide (MTT) was dissolved in phosphate buffered saline (PBS) at a concentration of 5 mg/ml, filtered, and stored at 4° C. About 10,000 cells were seeded into a 96-well plate and cultured in growth medium containing serum. After 24 hours, cells were treated with the indicated concentrations of DPM-1001 or DPM-1003 (0-100 uM) for 2 hrs. Following which 20 μl MTT was added into each well. An ELISA plate reader (Biotek, Winooski, Vermont, USA) was used to measure the optical density at 490 nm.

non-TNBC cell lines = assay: MTT cell survival, non-TNBC cell lines; format: cell-based
Procedure: as §1

MDA-MB-231 cells = assay: Cell survival; format: cell-based
Procedure: as §1
MDA-MB-231 cells (1×10^5) were seeded in 6 cm plates in growth medium. The cells were untreated or treated with DPM-1001 (0.5, 1, 2 and 5 μM), DPM-1003 (0.5, 1, 2 and 5 μM) or TTM (25, 50, 100 μM) for 1 h. Following which, media was gently aspirated and cells were washed with PBS. To each plate 0.5 ml of crystal violet (0.5%) was added and incubated in dark for 10 minutes at room temperature. The staining solution was removed and plates were washed with PBS (three times). The cells stained with the dye were imaged.

MDA-MB-231 and SUM159 = assay: Immunoblot of phospho-Erk; format: cell-based; details: DPM-1001 1-2 μM
Excerpt: Equal quantities of lysates were isolated from indicated cell lines and then resolved by SDS-PAGE and immunoblotted with one of the following primary antibodies: mouse anti-MEK1/2, rabbit anti-p-PAK1, rabbit anti-PAK1, rabbit anti-ERK1/2, rabbit anti-phospho(Ser 217/221)-MEK1/2, rabbit anti-phospho(Thr 202/Tyr 204)-ERK1/2, rabbit anti-phospho (Ser 338)-c-RAF, rabbit anti-RAF, rabbit anti-phospho (Ser 112)-BAD and rabbit anti-BAD (Cell Signaling Technology), mouse anti-β-actin (Sigma), followed by detection with one of the following horseradish peroxidase-conjugated secondary antibodies: goat anti-rabbit IgG, goat anti-mouse IgG (Invitrogen), mouse anti-rabbit light-chain-specific IgG (Jackson ImmunoResearch Laboratories) using enhanced chemiluminescence (ECL; GE Healthcare) or SuperSignal West Femto Chemiluminescent substrate (Pierce) detection reagents.

COC(=O)CCC(C)C1CCC2C3C(O)CC4CC(NCCCCNCc5ccccn5)CCC4(C)C3CCC12C (stereo not shown) [DPM-1001]
inhibitory potency for truncation mutants relative to PTP1B1-405 and PTP1B1-394 [1]: lower
complex formation with other metals [2]: none formed a complex with the compound
phosphorylation of JAK2 (JAK2): increased leptin-induced JAK2 phosphorylation; also recorded: enhanced phosphorylation of JAK2
longevity of TX mice (in words) (TX mice [3]; 5 mg/kg, every third day): prolongs their life
survival at one year of age (TX mice [3]; TX mice): 90%
survival at one year of age (TX mice [3]; wild-type mice): 100%
toxic side-effects of prolonged treatment (TX mice [3]; wild-type or TX mice): did not have overt toxic side-effects
liver morphology (TX mice [4]; TX mice): prevents the enlarged hepatocytes with irregular shape and arrangement large cytoplasmic lipid droplets in liver; also recorded: appeared similar to those from wild-type mice with normal hepatocyte size, shape and arrangement
liver morphology (TX mice [4]; wild-type mice): no obvious abnormalities were detected
survival of triple-negative breast cancer cells [5]: inhibited survival; also recorded: potently inhibits survival
survival of non-TNBC cell lines, DPM-1001 versus DPM-1003 (non-TNBC cell lines): did not differ from each other
survival of MDA-MB-231 cells (MDA-MB-231 cells): inhibiting survival; also recorded: inhibition of survival
levels of phospho-Erk (MDA-MB-231 and SUM159): high levels of reduction; also recorded: greater than that seen with 50 μM of bathocuproine disulfonate or 25 μM of TTM
